Experimental data as given in patent US20220008419A1, “PHARMACEUTICAL COMPOSITION FOR TREATING DIFFUSE-TYPE GASTRIC CANCER” (KANAZAWA MEDICAL UNIVERSITY, priority 2018, published 2022).

How the values were obtained:
[1] = biological target: EGFR (ErbB1) (Homo sapiens, UniProt P00533); settings: reported in literature; cited from earlier work
[2] = biological target: ErbB2 (HER2) (Homo sapiens, UniProt P04626); settings: reported in literature; cited from earlier work
[3] = biological target: ErbB4 (HER4) (Homo sapiens, UniProt Q15303); settings: reported in literature; cited from earlier work
Chain of ErbB4 (HER4) (Q15303 26-1308): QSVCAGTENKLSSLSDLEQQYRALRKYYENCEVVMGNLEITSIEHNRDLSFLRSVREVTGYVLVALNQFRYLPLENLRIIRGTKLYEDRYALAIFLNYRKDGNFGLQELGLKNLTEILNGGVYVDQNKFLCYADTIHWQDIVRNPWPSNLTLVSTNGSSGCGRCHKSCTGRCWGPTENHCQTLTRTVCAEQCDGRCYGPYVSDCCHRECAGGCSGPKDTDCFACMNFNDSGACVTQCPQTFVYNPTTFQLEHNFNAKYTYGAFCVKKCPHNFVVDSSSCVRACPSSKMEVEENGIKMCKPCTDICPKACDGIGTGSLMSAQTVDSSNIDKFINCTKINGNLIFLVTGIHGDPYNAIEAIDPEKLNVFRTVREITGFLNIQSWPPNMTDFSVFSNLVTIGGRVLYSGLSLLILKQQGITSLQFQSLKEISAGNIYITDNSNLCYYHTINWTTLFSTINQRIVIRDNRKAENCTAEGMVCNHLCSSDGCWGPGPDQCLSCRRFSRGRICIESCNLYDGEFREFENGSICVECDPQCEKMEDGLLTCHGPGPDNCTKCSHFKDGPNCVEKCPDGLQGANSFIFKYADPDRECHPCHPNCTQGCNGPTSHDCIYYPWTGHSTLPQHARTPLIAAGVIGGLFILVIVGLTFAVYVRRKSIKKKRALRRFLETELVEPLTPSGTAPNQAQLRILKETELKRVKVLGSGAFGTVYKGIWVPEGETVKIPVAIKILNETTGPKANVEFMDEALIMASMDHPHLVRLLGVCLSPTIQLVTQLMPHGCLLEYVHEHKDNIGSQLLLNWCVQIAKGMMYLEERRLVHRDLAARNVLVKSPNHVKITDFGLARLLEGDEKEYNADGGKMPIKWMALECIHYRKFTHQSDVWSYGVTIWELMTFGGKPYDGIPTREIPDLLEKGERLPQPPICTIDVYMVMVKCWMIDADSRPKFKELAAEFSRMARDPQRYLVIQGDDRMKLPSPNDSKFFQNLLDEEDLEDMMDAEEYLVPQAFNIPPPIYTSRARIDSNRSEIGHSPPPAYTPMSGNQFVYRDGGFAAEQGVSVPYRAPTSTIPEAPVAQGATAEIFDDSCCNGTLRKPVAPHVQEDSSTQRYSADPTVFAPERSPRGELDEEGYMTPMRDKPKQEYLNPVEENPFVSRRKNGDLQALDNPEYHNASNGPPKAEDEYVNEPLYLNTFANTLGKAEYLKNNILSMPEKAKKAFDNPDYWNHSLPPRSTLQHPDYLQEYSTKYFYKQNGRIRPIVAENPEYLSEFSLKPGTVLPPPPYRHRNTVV

[4] = system: ErbB2-overexpressing cells; settings: Hua Xie et al.; cited from earlier work
[5] = system: NUGC4; experiment: In vitro cell growth inhibition (CCK-8), diffuse gastric cancer cell line NUGC4; assay type: cell-based, human; settings: inhibitor 0.001 to 10 μM, 72 hours; for HGF-induced cell growth of NUGC4: HGF 50 ng/mL; for amphiregulin-induced cell growth of NUGC4: amphiregulin 100 ng/mL
Protocol: (§1) Five types of cell lines (NUGC4, GCIY, MKN7, GCR1 and MKN45) were subcultured in the RPMI 1640 culture medium containing 10% concentration of fetal bovine serum, 100 units/mL concentration of penicillin, and 100 units/mL concentration of antibiotic streptomycin, and used in the following experiments. The cells were periodically examined for the presence of mycoplasma infection by using MycoAlert Mycoplasma Detection Kit (Lonza). Cell growth was measured by using Cell Counting Kit-8 (CCK-8) (Dojin Kagaku Kenkyusho, Kumamoto, Japan) (Ishiyama M., et al., […], 44; 1299:1997). The cells were inoculated at a density of 5×10^4 cells/mL in a volume of 100 μL per well, and incubated at 37° C. for 24 hours in an incubator. Then, any one of three types of cell growth factors, amphiregulin (AP, 100 ng/mL, R&D Systems, Minneapolis, Minn.), heparin-binding EGF-like growth factor (HB-EGF), and hepatocyte growth factor (HGF, 50 ng/mL, R&D Systems), and any one of two types of the EGFR inhibitors, AZ5104 (0.001 to 10 μM) and AST1306 (0.001 to 10 μM)), were added to each well, and the cells were further incubated at 37° C. for 72 hours in an incubator. In addition, to the control wells, any one of the three types of cell growth factors was added, but not the EGFR inhibitor. Further, 10 μL of a WST-8 solution was added to each well, and the cells were cultured at 37° C. for 4 hours. Absorbance was measured at a wavelength of 450 nm by using a microplate reader (BIO-RAD Laboratories, Inc.). All the experiments were performed in triplicate, that is, the same experiment was repeated three times.

[6] = system: normal human gastric fibroblasts; experiment: In vitro growth inhibition test for fibroblasts (cell count); assay type: cell-based; settings: HB-EGF 10 ng/mL, EGF receptor inhibitor 1 μM, 96 hours
[7] = system: GCR-1; experiment: In vitro cell growth inhibition (CCK-8), non-diffuse gastric cancer cell line GCR-1; assay type: cell-based, human; settings: HGF 50 ng/mL, 72 hours
Protocol: as §1, with “Further, 10 μL of a WST-8 solution was added to each well, and the cells were cultured at 37° C. for 4 hours.” left out, “All the experiments were performed in triplicate, that is, the same experiment was repeated three times.” left out

[8] = system: EGFR-overexpressing tumor xenograft; settings: Hua Xie et al.; cited from earlier work
[9] = system: ErbB2-overexpressing adenocarcinoma xenograft; settings: Hua Xie et al.; cited from earlier work
[10] = system: cancer patients; settings: among 55 evaluable cancer patients, phase I; cited from earlier work
[11] = system: MKN7; experiment: In vitro cell growth inhibition (CCK-8), non-diffuse gastric cancer cell line MKN7; assay type: cell-based, human; settings: HGF 50 ng/mL, 72 hours
Protocol: as §1, with “Further, 10 μL of a WST-8 solution was added to each well, and the cells were cultured at 37° C. for 4 hours.” left out, “All the experiments were performed in triplicate, that is, the same experiment was repeated three times.” left out

[12] = system: GCIY; experiment: In vitro cell growth inhibition (CCK-8), diffuse gastric cancer cell line GCIY; assay type: cell-based, human; settings: 72 hours; for HB-EGF-induced cell growth of GCIY / HGF-induced cell growth of GCIY / amphiregulin-induced cell growth of GCIY: inhibitor 0.001 to 10 μM; for HGF-induced cell growth of GCIY: HGF 50 ng/mL; for amphiregulin-induced cell growth of GCIY: amphiregulin 100 ng/mL; for baseline cell growth of GCIY: no growth factor added
Protocol: as §1

[13] = system: FVB-2/Nneu transgenic breast cancer; settings: Hua Xie et al.; cited from earlier work
[14] = system: MKN45; experiment: In vitro cell growth inhibition (CCK-8), cMet gene-amplified gastric cancer cell line MKN45; assay type: cell-based, human; settings: 72 hours
Protocol: as §1, with “Further, 10 μL of a WST-8 solution was added to each well, and the cells were cultured at 37° C. for 4 hours.” left out, “All the experiments were performed in triplicate, that is, the same experiment was repeated three times.” left out

[15] = system: Diffuse gastric cancer cells (NUGC4 cells); experiment: In vivo test: survival of mice intraperitoneally transplanted with NUGC4 cells; parameters: species or system Balb/c nu/nu mice; settings: for mice alive 11 weeks after the gastric cancer cell transplantation / mice alive seven weeks after the gastric cancer cell transplantation: eight mice per therapy, treatment from day 21, AZ5104/osimertinib 10 mg/kg once a day oral, savolitinib 2.5 mg/kg once a day oral, antibody 40 mg/kg twice a week intraperitoneal; for t-test for numbers of mice alive 11 weeks after transplantation compared with the control group: p<0.05
Protocol: The anti-VEGF receptor 2 antibody used was anti-mouse VEGF receptor 2 antibody DC101 (GeneTex).
Diffuse gastric cancer cells (NUGC4 cells) were transplanted to Balb/c nu/nu mice (6 weeks old) by intraperitoneal administration of 2×10^6 of the cells in 200 μL of phosphate buffered saline (PBS) per mouse. On day 21 after the transplantation, ascites accumulation was confirmed, and treatment was started. The treatment was performed with the following eight kinds of therapies, and eight mice were used for each therapy.
For the control group (vehicle control), only a solution not dissolving any drug was administered once a week. The administration was continued for 4 weeks, and then for another 4 weeks.

[16] = system: mutant EGFR; settings: reported in literature; cited from earlier work
[17] = system: non-small cell lung cancer with EGFR EX20Ins mutation; settings: Floc'h et al.; cited from earlier work

Chain of EGFR (ErbB1) (P00533 25-1210): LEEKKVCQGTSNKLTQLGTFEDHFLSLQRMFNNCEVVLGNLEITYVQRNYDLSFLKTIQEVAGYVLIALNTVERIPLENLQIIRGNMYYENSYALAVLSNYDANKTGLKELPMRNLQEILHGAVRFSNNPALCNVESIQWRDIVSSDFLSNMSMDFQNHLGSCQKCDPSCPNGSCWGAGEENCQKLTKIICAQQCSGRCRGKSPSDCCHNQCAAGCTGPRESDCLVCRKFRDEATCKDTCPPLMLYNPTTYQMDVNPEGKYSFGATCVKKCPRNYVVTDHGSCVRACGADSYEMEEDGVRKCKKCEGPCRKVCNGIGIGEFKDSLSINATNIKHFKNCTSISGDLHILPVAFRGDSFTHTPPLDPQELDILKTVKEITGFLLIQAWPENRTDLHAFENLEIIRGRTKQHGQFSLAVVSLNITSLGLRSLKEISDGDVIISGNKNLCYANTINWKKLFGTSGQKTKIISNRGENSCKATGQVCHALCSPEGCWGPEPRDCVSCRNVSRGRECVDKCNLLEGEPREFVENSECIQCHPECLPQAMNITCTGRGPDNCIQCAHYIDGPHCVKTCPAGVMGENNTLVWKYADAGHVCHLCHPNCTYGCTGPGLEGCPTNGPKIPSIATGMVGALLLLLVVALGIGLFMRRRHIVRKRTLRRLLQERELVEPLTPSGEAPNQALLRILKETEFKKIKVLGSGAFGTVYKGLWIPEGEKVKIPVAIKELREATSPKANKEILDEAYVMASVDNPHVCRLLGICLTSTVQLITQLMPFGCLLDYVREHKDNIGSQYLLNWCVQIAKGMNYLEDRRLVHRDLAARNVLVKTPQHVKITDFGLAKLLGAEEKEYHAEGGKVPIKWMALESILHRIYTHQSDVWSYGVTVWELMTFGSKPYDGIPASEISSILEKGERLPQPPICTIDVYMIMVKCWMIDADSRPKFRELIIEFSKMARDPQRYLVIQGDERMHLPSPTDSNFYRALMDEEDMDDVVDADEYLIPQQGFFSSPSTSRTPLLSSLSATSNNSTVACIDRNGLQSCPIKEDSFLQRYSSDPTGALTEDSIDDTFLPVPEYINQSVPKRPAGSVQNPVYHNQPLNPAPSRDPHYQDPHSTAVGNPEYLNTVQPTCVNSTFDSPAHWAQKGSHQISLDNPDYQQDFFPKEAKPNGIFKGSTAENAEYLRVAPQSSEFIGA
Chain of ErbB2 (HER2) (P04626 23-1255): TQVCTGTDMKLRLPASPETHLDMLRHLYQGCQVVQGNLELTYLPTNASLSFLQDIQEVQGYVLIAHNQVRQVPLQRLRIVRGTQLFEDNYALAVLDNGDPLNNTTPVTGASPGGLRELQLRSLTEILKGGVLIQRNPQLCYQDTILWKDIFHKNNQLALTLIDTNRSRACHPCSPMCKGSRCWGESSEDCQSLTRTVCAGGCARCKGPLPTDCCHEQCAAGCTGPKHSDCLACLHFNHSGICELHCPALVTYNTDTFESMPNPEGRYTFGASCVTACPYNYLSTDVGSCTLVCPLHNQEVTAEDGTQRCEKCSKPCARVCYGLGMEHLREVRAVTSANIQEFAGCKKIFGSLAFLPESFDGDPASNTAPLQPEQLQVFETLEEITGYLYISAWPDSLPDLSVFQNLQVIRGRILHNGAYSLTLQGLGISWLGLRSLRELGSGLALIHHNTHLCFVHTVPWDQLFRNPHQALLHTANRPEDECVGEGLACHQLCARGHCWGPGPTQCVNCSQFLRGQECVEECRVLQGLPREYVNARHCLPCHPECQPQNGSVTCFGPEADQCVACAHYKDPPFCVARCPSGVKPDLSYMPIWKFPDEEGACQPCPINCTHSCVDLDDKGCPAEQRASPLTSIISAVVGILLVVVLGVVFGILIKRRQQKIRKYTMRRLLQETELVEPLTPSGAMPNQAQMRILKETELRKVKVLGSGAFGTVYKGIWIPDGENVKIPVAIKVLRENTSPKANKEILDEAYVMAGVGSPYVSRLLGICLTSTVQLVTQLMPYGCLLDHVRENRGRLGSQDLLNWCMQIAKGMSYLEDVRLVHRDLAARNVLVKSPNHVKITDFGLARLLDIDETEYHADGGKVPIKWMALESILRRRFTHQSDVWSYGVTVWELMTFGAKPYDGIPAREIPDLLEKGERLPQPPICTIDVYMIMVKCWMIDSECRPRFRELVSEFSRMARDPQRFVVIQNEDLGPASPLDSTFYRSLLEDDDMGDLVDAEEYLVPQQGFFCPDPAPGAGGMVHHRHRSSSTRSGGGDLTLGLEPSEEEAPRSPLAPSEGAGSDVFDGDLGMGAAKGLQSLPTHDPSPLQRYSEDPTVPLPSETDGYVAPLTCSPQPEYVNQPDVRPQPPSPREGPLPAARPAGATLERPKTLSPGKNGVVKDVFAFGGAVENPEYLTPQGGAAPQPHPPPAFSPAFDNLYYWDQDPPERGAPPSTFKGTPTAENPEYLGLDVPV

In the case of `Cc1c(NC(=O)OC[C@@H]2COCCN2)cn2ncnc(Nc3ccc4c(cnn4Cc4cccc(F)c4)c3)c12` [AC480, (S)-morpholin-3-ylmethyl 4-(1-(3-fluorobenzyl)-1H-indazol-5-ylamino)-5-methylpyrrolo[1,2-f][1,2,4]triazine-6-carbamate], the “inhibition of EGFR (ErbB1)” value [1] is given as “inhibit”, the “inhibition of ErbB2 (HER2)” value [2] is given as “inhibit” and the “inhibition of ErbB4 (HER4)” value [3] is given as “inhibit”.
In the case of `CCN1CCN(Cc2ccc(-c3cc4c(N[C@H](C)c5ccccc5)ncnc4[nH]3)cc2)CC1` [AEE788, (R)-6-(4-((4-ethylpiperazin-1-yl)methyl)phenyl)-N-(1-phenylethyl)-7H-pyrrolo[2,3-d]pyrimidin-4-amine], the “inhibition of EGFR (ErbB1)” value [1] is given as “inhibit”, the “inhibition of ErbB2 (HER2)” value [2] is given as “inhibit” and the “inhibition of ErbB4 (HER4)” value [3] is given as “inhibit”.
In the case of `C=CC(=O)Nc1ccc2ncnc(Nc3ccc(OCc4cccc(F)c4)c(Cl)c3)c2c1.Cc1ccc(S(=O)(=O)O)cc1` [AST1306, 2-propenamide, N-[4-[[3-chloro-4-[(3-fluorophenyl)methoxy]phenyl]amino]-6-quinazolinyl]-, 4-methylbenzenesulfonate (1:1)], the “inhibition of EGFR (ErbB1)” value [1] is given as “irreversible inhibitor”, the “growth inhibitory effect in ErbB2-overexpressing cells” value [4] is given as “more potent” and the “HB-EGF-induced cell growth of NUGC4” value [5] is given as “inhibited”. For the same compound, the “HGF-induced cell growth of NUGC4” value [5] was “inhibited”, the “amphiregulin-induced cell growth of NUGC4” value [5] was “inhibited” and the “HB-EGF-induced cell growth of normal human gastric fibroblasts” value [6] was “inhibited”. For the same compound, the “inhibition of ErbB2 (HER2)” value [2] was “irreversible inhibitor”, the “concentration at which HGF-induced cell growth of GCR-1 was inhibited” value [7] was no less than 0.3 µM and the “tumor growth in EGFR-overexpressing tumor xenografted mice” value [8] was “weakly inhibited”. For the same compound, the “tumor growth in ErbB2-overexpressing adenocarcinoma xenografted mice” value [9] was “potently inhibited”, the partial remission [10] was 7 patients and the “stability (stability over 6 months or longer)” value [10] was 7 patients. The “concentration at which HGF-induced cell growth of MKN7 was inhibited” value [11] was no less than 0.3 µM, the “HB-EGF-induced cell growth of GCIY” value [12] was “inhibited” and the “HGF-induced cell growth of GCIY” value [12] was “inhibited”. For the same compound, the “amphiregulin-induced cell growth of GCIY” value [12] was “inhibited”, the “baseline cell growth of GCIY” value [12] was “inhibited” and the “tumor growth in FVB-2/Nneu transgenic breast cancer mice” value [13] was “potently inhibited”. For the same compound, the “inhibition of ErbB4 (HER4)” value [3] was “irreversible inhibitor” and the “concentration at which cell growth of MKN45 was inhibited” value [14] was no less than 1 µM.
For `C=CC(=O)Nc1cc(Nc2nccc(-c3c[nH]c4ccccc34)n2)c(OC)cc1N(C)CCN(C)C` [AZ5104, N-(5-(4-(1H-indol-3-yl)pyrimidin-2-ylamino)-2-((2-(dimethylamino)ethyl)(methyl)amino)-4-methoxyphenyl)acrylamide], the “inhibition of EGFR (ErbB1)” value [1] is given as “inhibitory activities”, the “HB-EGF-induced cell growth of NUGC4” value [5] is given as “inhibited” and the “HGF-induced cell growth of NUGC4” value [5] is given as “inhibited”. For the same compound, the “amphiregulin-induced cell growth of NUGC4” value [5] was “inhibited”, the “HB-EGF-induced cell growth of normal human gastric fibroblasts” value [6] was “inhibited” and the “mice alive 11 weeks after the gastric cancer cell transplantation” value [15] was “all died”. For the same compound, the “mice alive seven weeks after the gastric cancer cell transplantation” value [15] was “one”, the “t-test for numbers of mice alive 11 weeks after transplantation compared with the control group” value (shortened to “t-test … compared with the control group”) [15] was “significant differences” and the “inhibitory activity against mutant EGFR” value [16] was “inhibitory activity”. The “inhibition of ErbB2 (HER2)” value [2] was “inhibitory activities”, the “concentration at which HGF-induced cell growth of GCR-1 was inhibited” value [7] was no less than 0.3 µM and the “tumor growth in mice transplanted with non-small cell lung cancer with EGFR EX20Ins mutation” value [17] was “inhibit”. For the same compound, the “concentration at which HGF-induced cell growth of MKN7 was inhibited” value [11] was no less than 0.3 µM, the “HB-EGF-induced cell growth of GCIY” value [12] was “inhibited” and the “HGF-induced cell growth of GCIY” value [12] was “inhibited”. The “amphiregulin-induced cell growth of GCIY” value [12] was “inhibited”, the “baseline cell growth of GCIY” value [12] was “inhibited” and the “inhibition of ErbB4 (HER4)” value [3] was “inhibitory activities”. The “concentration at which cell growth of MKN45 was inhibited” value [14] was no less than 1 µM.
In the case of `CC(C)(O)CC(=O)NCCn1ccc2ncnc(Nc3ccc(Oc4cccc(C(F)(F)F)c4)c(Cl)c3)c21` [TAK-285, N-(2-(4-(3-chloro-4-(3-(trifluoromethyl)phenoxy)phenylamino)-5H-pyrrolo[3,2-d]pyrimidin-5-yl)ethyl)-3-hydroxy-3-methylbutanamide], the “inhibition of ErbB2 (HER2)” value [2] is given as “inhibit” and the “inhibition of ErbB4 (HER4)” value [3] is given as “inhibit”.
In the case of `COc1cc2ncnc(Nc3ccc(F)c(Cl)c3)c2cc1NC(=O)/C=C/CN1CCCCC1` [dacomitinib], the “inhibition of EGFR (ErbB1)” value [1] is listed as “inhibit”, the “inhibition of ErbB2 (HER2)” value [2] is listed as “inhibit” and the “inhibition of ErbB4 (HER4)” value [3] is listed as “inhibit”.
In the case of `CS(=O)(=O)CCNCc1ccc(-c2ccc3ncnc(Nc4ccc(OCc5cccc(F)c5)c(Cl)c4)c3c2)o1` [lapatinib], the “inhibition of ErbB2 (HER2)” value [2] is listed as “inhibit” and the “inhibition of ErbB4 (HER4)” value [3] is listed as “inhibit”.
In the case of `C=CC(=O)Nc1cc(Nc2nccc(-c3cn(C)c4ccccc34)n2)c(OC)cc1N(C)CCN(C)C` [osimertinib, 2-propenamide, N-[2-[[2-(dimethylamino)ethyl]methylamino]-4-methoxy-5-[[4-(1-methyl-1H-indol-3-yl)-2-pyrimidinyl]amino]phenyl]-], the “mice alive 11 weeks after the gastric cancer cell transplantation” value [15] is listed as 2 mice, the “t-test … compared with the control group” value [15] is listed as “significant differences” and the “inhibitory activity against mutant EGFR” value [16] is listed as “inhibitory activity”. For the same compound, the “inhibition of ErbB2 (HER2)” value [2] was “inhibitory activities”, the “tumor growth in mice transplanted with non-small cell lung cancer with EGFR EX20Ins mutation” value [17] was “inhibit” and the “inhibition of ErbB4 (HER4)” value [3] was “inhibitory activities”.
For `C=CC(=O)N1CCC(Oc2cc3c(Nc4ccc(Cl)c(Cl)c4F)ncnc3cc2OC)CC1` [poziotinib, 1-(4-(4-(3,4-dichloro-2-fluorophenylamino)-7-methoxyquinazolin-6-yloxy)piperidin-1-yl)prop-2-en-1-one], the “inhibition of EGFR (ErbB1)” value [1] is given as “inhibit”, the “inhibition of ErbB2 (HER2)” value [2] is given as “inhibit” and the “inhibition of ErbB4 (HER4)” value [3] is given as “inhibit”.
With `C[C@@H](c1ccc2nccn2c1)n1nnc2ncc(-c3cnn(C)c3)nc21` [savolitinib] the “mice alive 11 weeks after the gastric cancer cell transplantation” value [15] was “all died”, the “mice alive seven weeks after the gastric cancer cell transplantation” value [15] was 2 mice and the “t-test … compared with the control group” value [15] was “no significant difference”.
